In test [1] the target is SBK1 (Homo sapiens, UniProt Q52WX2). Briefly: biochemical. The following applies: read-out: % enzyme activity, 1 μM; Run 1, Run 2.
Test [2] deals with CDK5/p35 (Homo sapiens, UniProt Q00535). Briefly: biochemical. The following applies: read-out: % enzyme activity, 1 μM; Run 1, Run 2.
For test [3], the target named is HPK1/MAP4K1 (Homo sapiens, UniProt Q92918). Nature of the test: biochemical. The following applies: read-out: % enzyme activity, 1 μM; Run 1, Run 2.
The target of test [4] is STK25/YSK1 (Homo sapiens, UniProt O00506). Nature of the test: biochemical. Conditions: read-out: % enzyme activity, 1 μM; Run 1, Run 2.
Sequence of STK25/YSK1 (O00506 whole entry): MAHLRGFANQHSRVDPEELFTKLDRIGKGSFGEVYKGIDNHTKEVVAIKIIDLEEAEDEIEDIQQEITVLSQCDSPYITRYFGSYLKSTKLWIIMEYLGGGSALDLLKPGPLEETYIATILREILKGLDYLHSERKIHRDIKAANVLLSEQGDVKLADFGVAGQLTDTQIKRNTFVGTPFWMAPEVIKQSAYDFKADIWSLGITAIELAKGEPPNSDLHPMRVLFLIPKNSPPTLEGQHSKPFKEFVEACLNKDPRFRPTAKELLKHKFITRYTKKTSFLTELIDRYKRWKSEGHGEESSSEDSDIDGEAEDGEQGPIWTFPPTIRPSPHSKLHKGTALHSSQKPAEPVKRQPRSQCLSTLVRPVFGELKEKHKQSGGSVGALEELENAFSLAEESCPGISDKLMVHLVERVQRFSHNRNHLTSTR
Test [5] concerns the target SRMS (Homo sapiens, UniProt Q9H3Y6). Conditions: 1 μM; Run 1, Run 2.
The target in test [6] is FLT1/VEGFR1 (Homo sapiens, UniProt P17948). Briefly: biochemical. Conditions: read-out: % enzyme activity, 1 μM; Run 1, Run 2.
Sequence of FLT1/VEGFR1 (P17948 27-1338): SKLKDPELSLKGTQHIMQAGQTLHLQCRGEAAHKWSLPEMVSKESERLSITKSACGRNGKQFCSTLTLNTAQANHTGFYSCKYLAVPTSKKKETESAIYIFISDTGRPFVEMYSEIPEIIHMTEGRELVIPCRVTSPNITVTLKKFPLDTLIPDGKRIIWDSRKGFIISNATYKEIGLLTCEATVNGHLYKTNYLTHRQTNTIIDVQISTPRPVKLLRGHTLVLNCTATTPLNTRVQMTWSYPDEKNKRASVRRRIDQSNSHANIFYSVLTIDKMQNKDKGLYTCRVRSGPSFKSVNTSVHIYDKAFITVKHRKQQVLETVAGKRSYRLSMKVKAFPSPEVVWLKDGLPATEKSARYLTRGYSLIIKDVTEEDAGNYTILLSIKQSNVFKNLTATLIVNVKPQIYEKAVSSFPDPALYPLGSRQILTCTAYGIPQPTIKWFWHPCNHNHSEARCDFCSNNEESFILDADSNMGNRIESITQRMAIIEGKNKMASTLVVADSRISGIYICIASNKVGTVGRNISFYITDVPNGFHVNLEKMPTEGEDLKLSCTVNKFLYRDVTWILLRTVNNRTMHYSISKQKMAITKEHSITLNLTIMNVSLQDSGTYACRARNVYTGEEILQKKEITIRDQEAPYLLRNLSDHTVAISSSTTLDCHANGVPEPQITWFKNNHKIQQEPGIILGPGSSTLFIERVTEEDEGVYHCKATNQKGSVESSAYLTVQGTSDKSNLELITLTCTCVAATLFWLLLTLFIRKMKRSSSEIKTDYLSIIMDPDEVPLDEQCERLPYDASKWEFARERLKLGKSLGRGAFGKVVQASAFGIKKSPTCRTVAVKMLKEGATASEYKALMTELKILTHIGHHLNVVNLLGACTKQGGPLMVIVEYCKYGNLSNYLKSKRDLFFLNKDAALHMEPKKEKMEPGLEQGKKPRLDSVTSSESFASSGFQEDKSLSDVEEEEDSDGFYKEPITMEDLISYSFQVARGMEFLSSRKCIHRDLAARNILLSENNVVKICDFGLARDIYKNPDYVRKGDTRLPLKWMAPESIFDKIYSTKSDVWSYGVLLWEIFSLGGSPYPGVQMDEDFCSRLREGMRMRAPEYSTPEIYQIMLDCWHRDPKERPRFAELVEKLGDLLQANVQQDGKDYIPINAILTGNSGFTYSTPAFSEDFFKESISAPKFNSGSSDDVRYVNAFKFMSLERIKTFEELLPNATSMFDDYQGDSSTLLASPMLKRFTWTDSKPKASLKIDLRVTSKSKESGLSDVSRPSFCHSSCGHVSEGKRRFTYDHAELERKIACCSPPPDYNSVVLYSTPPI
Test [7] deals with T1, BRSK1 (Homo sapiens, UniProt Q8TDC3).
T1 sequence (Q8TDC3 1-778): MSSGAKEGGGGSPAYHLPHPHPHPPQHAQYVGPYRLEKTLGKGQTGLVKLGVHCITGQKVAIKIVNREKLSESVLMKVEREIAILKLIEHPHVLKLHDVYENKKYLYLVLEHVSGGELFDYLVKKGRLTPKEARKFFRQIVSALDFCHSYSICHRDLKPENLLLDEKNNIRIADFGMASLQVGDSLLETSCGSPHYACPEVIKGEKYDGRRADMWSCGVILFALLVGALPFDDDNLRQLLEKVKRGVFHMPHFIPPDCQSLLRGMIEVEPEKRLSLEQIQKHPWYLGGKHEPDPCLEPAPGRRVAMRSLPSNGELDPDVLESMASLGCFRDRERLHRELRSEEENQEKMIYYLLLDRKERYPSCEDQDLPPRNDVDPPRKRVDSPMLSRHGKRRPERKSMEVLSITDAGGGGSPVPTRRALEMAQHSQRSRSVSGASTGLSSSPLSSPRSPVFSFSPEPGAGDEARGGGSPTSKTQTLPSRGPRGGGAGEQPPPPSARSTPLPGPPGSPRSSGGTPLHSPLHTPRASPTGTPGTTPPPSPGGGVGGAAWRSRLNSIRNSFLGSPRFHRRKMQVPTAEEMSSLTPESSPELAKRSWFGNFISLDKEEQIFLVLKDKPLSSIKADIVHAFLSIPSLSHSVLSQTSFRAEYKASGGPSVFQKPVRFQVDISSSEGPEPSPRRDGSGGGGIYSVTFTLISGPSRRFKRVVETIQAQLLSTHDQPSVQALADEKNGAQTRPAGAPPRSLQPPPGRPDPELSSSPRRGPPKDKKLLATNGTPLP
Briefly: biochemical. Conditions: read-out: % enzyme activity, 1 μM; Run 1, Run 2.

Test [8] concerns the target TYK1/LTK (Homo sapiens, UniProt P29376). Conditions: 1 μM; Run 1, Run 2.
In test [9] the target is T2, MEK3 (Homo sapiens, UniProt P46734).
T2 sequence (P46734 1-347): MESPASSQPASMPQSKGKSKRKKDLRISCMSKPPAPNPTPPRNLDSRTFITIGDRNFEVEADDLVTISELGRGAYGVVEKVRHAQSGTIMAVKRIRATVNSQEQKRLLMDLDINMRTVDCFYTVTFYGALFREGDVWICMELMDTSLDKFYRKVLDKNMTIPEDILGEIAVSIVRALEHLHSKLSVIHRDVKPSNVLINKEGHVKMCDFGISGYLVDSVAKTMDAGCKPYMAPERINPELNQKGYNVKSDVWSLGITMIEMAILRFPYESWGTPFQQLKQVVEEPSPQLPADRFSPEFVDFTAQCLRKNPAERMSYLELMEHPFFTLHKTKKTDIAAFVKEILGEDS
Conditions: 1 μM; Run 1, Run 2.

For test [10], the target named is PHKg1 (Homo sapiens, UniProt Q16816). Briefly: biochemical. Conditions: read-out: % enzyme activity, 1 μM; Run 1, Run 2.
Test [11] addresses PKA (Homo sapiens, UniProt P17612). The following applies: 1 μM; Run 1, Run 2.
Test [12] addresses T2, MEK3. Briefly: biochemical. Conditions: read-out: % enzyme activity, 1 μM; Run 1, Run 2.
In test [13] the target is MRCKa/CDC42BPA (Homo sapiens, UniProt Q5VT25). The following applies: 1 μM; Run 1, Run 2.
Sequence of MRCKa/CDC42BPA (Q5VT25 whole entry): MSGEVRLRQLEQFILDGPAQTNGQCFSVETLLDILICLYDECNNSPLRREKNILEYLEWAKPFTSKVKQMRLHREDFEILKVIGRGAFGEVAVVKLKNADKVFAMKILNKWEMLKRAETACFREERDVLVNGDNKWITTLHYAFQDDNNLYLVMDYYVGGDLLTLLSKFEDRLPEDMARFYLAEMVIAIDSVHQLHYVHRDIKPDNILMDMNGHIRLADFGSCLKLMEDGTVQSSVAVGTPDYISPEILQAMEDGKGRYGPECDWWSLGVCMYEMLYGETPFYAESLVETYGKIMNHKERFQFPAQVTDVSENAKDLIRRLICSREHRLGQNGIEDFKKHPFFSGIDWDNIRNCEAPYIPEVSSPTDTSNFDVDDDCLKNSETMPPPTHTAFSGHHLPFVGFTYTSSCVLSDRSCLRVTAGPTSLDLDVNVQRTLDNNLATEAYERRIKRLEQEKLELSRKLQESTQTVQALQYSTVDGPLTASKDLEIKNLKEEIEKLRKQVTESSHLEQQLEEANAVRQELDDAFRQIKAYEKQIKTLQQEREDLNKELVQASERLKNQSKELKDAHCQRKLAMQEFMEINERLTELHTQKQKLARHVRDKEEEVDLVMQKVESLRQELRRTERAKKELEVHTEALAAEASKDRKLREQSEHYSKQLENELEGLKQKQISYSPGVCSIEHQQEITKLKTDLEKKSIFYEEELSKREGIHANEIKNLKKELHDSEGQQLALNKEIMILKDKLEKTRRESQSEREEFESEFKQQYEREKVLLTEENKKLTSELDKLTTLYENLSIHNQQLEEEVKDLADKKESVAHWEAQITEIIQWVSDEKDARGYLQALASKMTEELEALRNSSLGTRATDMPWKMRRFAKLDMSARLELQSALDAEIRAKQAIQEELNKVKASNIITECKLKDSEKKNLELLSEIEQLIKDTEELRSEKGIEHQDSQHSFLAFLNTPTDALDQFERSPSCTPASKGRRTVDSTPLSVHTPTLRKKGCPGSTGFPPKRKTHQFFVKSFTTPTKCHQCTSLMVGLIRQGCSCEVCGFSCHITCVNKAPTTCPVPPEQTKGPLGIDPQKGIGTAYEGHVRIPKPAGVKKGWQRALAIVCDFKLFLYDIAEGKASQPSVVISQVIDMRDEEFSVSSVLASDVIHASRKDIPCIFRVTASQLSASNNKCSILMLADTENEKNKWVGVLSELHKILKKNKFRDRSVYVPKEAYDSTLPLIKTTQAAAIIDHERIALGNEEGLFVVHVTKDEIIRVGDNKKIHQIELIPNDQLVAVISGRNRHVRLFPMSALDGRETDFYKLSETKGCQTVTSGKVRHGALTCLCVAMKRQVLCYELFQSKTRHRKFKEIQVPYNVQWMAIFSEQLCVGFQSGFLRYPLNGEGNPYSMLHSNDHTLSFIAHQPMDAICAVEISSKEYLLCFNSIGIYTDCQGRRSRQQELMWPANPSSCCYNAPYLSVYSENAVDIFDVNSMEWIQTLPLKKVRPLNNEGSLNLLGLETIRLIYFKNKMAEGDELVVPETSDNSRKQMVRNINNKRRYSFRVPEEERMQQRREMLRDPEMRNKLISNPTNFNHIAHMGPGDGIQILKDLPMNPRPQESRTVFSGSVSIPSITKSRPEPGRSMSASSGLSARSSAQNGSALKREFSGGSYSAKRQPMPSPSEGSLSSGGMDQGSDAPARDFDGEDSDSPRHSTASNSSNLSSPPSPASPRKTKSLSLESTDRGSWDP
For test [14], the target named is GRK4 (Homo sapiens, UniProt P32298). The following applies: 1 μM; Run 1, Run 2.
Sequence of GRK4 (P32298 whole entry): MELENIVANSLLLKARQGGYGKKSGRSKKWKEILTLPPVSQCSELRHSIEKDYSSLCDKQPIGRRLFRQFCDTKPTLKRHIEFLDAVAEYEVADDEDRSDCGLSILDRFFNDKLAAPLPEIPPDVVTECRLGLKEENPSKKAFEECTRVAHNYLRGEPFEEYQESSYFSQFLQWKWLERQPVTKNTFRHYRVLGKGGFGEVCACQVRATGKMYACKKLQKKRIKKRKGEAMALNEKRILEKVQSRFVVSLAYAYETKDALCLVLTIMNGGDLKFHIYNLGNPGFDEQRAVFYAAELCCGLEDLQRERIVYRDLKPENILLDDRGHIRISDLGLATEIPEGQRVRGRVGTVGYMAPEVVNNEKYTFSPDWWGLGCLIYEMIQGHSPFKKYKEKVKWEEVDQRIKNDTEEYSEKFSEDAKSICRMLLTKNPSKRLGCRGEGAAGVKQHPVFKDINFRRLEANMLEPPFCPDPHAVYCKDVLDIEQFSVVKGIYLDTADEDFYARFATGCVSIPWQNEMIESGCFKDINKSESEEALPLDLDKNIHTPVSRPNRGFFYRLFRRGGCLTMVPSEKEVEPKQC
The target in test [15] is T3, ULK1 (Homo sapiens, UniProt O75385).
T3 sequence (O75385 1-1050): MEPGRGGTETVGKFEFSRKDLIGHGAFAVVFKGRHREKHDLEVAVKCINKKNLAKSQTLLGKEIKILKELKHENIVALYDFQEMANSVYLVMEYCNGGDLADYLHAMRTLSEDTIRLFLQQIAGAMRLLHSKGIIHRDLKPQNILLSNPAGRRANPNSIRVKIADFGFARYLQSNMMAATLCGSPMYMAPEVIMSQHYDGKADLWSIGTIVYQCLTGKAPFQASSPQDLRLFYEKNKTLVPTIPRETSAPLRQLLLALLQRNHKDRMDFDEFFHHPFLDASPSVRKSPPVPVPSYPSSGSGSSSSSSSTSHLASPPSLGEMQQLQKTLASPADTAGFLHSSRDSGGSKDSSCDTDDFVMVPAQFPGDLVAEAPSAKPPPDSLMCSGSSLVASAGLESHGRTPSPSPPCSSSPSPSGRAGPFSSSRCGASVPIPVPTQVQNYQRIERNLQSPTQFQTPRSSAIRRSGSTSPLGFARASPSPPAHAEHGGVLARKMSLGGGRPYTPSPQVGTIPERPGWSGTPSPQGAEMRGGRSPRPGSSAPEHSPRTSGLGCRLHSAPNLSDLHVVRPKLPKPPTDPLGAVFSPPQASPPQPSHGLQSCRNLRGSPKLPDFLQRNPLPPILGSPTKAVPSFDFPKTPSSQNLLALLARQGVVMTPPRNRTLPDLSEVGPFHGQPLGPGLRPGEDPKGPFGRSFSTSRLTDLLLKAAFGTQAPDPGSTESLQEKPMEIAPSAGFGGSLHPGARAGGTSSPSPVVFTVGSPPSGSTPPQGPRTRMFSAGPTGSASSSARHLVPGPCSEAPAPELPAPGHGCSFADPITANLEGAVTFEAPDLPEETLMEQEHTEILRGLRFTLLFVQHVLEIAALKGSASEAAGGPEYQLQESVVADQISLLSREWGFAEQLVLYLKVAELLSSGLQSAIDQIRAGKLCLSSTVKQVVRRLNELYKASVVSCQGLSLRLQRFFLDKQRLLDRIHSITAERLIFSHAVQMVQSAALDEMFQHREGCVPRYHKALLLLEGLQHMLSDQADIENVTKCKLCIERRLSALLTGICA
Briefly: biochemical. The following applies: read-out: % enzyme activity, 1 μM; Run 1, Run 2.

Sequence of SBK1 (Q52WX2 whole entry): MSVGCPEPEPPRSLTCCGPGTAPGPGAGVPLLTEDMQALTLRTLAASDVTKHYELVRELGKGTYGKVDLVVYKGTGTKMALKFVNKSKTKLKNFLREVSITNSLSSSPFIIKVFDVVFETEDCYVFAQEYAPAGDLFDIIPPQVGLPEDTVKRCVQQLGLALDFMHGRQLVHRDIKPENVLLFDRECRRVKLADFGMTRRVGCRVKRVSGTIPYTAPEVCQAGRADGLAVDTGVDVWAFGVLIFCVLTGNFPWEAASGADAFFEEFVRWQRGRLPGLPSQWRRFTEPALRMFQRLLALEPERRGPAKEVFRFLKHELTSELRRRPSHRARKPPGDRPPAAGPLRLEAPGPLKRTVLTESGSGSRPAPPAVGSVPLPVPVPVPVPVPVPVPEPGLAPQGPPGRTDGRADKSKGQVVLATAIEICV
Sequence of SRMS (Q9H3Y6 whole entry): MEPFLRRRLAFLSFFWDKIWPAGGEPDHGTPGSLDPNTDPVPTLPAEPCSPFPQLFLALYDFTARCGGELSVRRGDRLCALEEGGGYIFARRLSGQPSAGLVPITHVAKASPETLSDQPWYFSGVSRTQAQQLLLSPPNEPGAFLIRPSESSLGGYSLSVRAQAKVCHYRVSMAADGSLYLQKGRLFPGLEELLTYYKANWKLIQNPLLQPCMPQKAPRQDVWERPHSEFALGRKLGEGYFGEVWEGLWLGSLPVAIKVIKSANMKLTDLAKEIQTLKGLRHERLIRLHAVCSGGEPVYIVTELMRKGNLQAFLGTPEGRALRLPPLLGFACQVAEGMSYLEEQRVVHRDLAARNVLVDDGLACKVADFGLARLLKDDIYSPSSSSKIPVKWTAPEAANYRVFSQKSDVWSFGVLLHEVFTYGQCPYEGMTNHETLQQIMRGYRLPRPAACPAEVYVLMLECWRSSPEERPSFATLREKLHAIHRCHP

As for `COc1cc(-c2cncc(-c3ccc(N4CCN(C)CC4)cc3)c2C)cc(F)c1C(N)=O` [Compound 26a, 2-Fluoro-6-methoxy-4-(4-methyl-5-(4-(4-methylpiperazin-1-yl)phenyl)pyridin-3-yl)benzamide], the remaining activity at 1 µM in test [1] was determined as 94.6%; in test [2], 96.2%; in [3] it was 58.7%; in [4] it was 95.7%; in [6] it was 107%; in test [7] it was 84.7%. The remaining activity at 1 µM was determined as 85.6% in [10], 102% in test [12] and 84.7% in test [15]. In addition, the “% enzyme activity” value in test [5] stood at 95.09%; in test [8] it was 99.76%; in test [9], 100.94%; in test [11] it was 96.94%; in [13], 102.07%; in [14], 79.15%.

Consider `COc1cc(-c2cncc(-c3ccc(N4C[C@@H](C)N(C)[C@@H](C)C4)cc3)c2C)cc(F)c1C(N)=O` [Compound 26c, 2-Fluoro-6-methoxy-4-(4-methyl-5-(4-((3R,5S)-3,4,5-trimethylpiperazin-1-yl)phenyl)pyridin-3-yl)benzamide], for which the remaining activity at 1 µM was 103% in test [1]; 97.6% in test [2]; 74.7% in [3]; 96.1% in [4]; 108% in test [6]; 84% in test [7]. The remaining activity at 1 µM came to 97% in test [10], 101% in [12] and 89.8% in [15]. The “% enzyme activity” value is given as 95.91% in [5]; 99.99% in test [8]; 101.33% in test [9]; 95.62% in [11]; 104.72% in [13]; 92.15% in test [14].

The values are drawn from paper PMC8213057, “Targeting ALK2: An Open Science Approach to Developing Therapeutics for the Treatment of Diffuse Intrinsic Pontine Glioma” (Journal of Medicinal Chemistry, 2020).
